Assay results taken from patent US10010547B2 (CASCADIAN THERAPEUTICS, INC., priority 2014, dated 2018).
Structures can show the parent of a compound that is named as a salt. Where two headings read alike, the source gives them in different places.

What was measured:
Chk-1 kinase = Chk-1 kinase (Homo sapiens (Human), UniProt O14757); experiment: Chk-1 Kinase Inhibiting Activity (33P-ATP filter assay, CHKtide substrate); assay type: biochemical; conditions: against Chk-1 kinase; read-out: IC50
Procedure, shortened: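 Full-length N-terminal GST-tagged human Chk-1 from insect cells, 0.5 nM final, with 20 μM peptide substrate and 33P-ATP in HEPES pH 7.5 buffer with 1% DMSO. Reaction ran 120 minutes at room temperature; incorporated radioactivity captured on P81 filters and counted for IC50.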

MIA PaCa-2 cells = experiment: Gemcitabine Combination Cell Assay (Cell Titer Glo); assay type: cell-based; conditions: for IC50: Homo sapiens; for 10xLS: approximate concentration of Chk1 inhibitor that results in a 10-fold reduction in the IC50 of gemcitabine alone; for 2xLS: approximate concentration of Chk1 inhibitor that results in a two-fold reduction in the IC50 of gemcitabine alone
Procedure, shortened: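 MIA PaCa-2 cells were treated 72 h with half-log dilutions of Chk1 inhibitor (top 3000 nM) and gemcitabine (top 100 nM), alone and in full matrix; viability by CellTiter-Glo luminescence. IC50s from four-parameter fit; Chk1 inhibitor concentrations giving two- and ten-fold lowering of gemcitabine IC50 were estimated.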

[1] = Chk1 inhibitor alone, MIA PaCa-2 cells, 72 h, read-out: Chk1 IC50
[2] = MIA PaCa-2, 72 h, read-out: Chk1 IC50 (nM)

Sequence of Chk-1 kinase (O14757 whole entry): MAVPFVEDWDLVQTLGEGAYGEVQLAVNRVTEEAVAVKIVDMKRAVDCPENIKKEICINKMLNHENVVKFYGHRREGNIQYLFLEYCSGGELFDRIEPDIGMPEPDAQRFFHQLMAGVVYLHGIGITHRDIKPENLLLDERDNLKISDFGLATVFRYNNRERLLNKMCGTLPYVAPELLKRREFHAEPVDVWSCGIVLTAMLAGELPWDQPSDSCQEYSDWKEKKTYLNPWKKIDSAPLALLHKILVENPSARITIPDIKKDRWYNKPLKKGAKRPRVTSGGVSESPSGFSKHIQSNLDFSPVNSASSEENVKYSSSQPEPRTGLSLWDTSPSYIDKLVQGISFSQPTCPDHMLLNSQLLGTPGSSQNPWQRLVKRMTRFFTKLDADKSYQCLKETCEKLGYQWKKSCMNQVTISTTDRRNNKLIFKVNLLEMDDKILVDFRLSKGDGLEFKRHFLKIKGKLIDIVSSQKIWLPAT

COc1cc(N2CCCNCC2)ccc1-c1cc(Nc2cnc(C#N)cn2)n[nH]1 [Example 54, 5-[[5-[4-(1,4-diazepan-1-yl)-2-methoxy-phenyl]-1H-pyrazol-3-yl]amino]pyrazine-2-carbonitrile]
IC50 (Chk-1 kinase): 0.12 nM
IC50 (MIA PaCa-2 cells; [1]): 137 nM
10xLS (MIA PaCa-2 cells; MIA PaCa-2 cells, 72 h): 30 nM
2xLS (MIA PaCa-2 cells; MIA PaCa-2 cells, 72 h): <3 nM

COc1cc(C2CCNCC2)ccc1-c1cc(Nc2cnc(C)cn2)n[nH]1 [Example 55, N-[5-[2-methoxy-4-(4-piperidyl)phenyl]-1H-pyrazol-3-yl]-5-methyl-pyrazin-2-amine]
IC50 (Chk-1 kinase): 227 nM
IC50 (MIA PaCa-2 cells; [1]): > 3000 nM
10xLS (MIA PaCa-2 cells; MIA PaCa-2 cells, 72 h): >3000 nM
2xLS (MIA PaCa-2 cells; MIA PaCa-2 cells, 72 h): 1000 nM

N#Cc1cnc(Nc2cc(-c3ccc(C4CCNCC4)cc3)[nH]n2)cn1 [Example 56, 5-[[5-[4-(4-piperidyl)phenyl]-1H-pyrazol-3-yl]amino]pyrazine-2-carbonitrile]
IC50 (Chk-1 kinase): 183 nM
IC50 (MIA PaCa-2 cells; [1]): > 3000 nM
10xLS (MIA PaCa-2 cells; MIA PaCa-2 cells, 72 h): >3000 nM
2xLS (MIA PaCa-2 cells; MIA PaCa-2 cells, 72 h): 1000 nM

COc1cc(OC2CCNCC2)ccc1-c1cc(Nc2cnc(C#N)cn2)n[nH]1 [Example 57, 5-[[5-[2-methoxy-4-(4-piperidyloxy)phenyl]-1H-pyrazol-3-yl]amino]pyrazine-2-carbonitrile]
IC50 (Chk-1 kinase): 0.071 nM
IC50 (MIA PaCa-2 cells; [1]): 337 nM
10xLS (MIA PaCa-2 cells; MIA PaCa-2 cells, 72 h): 100 nM
2xLS (MIA PaCa-2 cells; MIA PaCa-2 cells, 72 h): 3 nM

COc1cc(C2CCNCC2)c(F)cc1-c1cc(Nc2cnc(C#N)cn2)n[nH]1 [Example 58, 5-[[5-[5-fluoro-2-methoxy-4-(4-piperidyl)phenyl]-1H-pyrazol-3-yl]amino]pyrazine-2-carbonitrile]
IC50 (Chk-1 kinase): 0.54 nM
IC50 (MIA PaCa-2 cells; [1]): 676 nM
10xLS (MIA PaCa-2 cells; MIA PaCa-2 cells, 72 h): 300 nM
2xLS (MIA PaCa-2 cells; MIA PaCa-2 cells, 72 h): 30 nM

COc1cc(CNC(C)C)ccc1-c1cc(Nc2cnc(C#N)cn2)n[nH]1 [Example 59, 5-[[5-[4-[(isopropylamino)methyl]-2-methoxy-phenyl]-1H-pyrazol-3-yl]amino]pyrazine-2-carbonitrile]
IC50 (Chk-1 kinase): 0.071 nM
IC50 (MIA PaCa-2 cells; [1]): 263 nM
10xLS (MIA PaCa-2 cells; MIA PaCa-2 cells, 72 h): 100 nM
2xLS (MIA PaCa-2 cells; MIA PaCa-2 cells, 72 h): 3 nM

CCN1CCC(c2ccc(-c3cc(Nc4cnc(C#N)cn4)n[nH]3)c(OC)c2)CC1 [Example 60, 5-[[5-[4-(1-ethyl-4-piperidyl)-2-methoxy-phenyl]-1H-pyrazol-3-yl]amino]pyrazine-2-carbonitrile hydrochloride]
IC50 (Chk-1 kinase): 0.1 nM
IC50 (MIA PaCa-2 cells; [2]): 329 nM
10xLS (MIA PaCa-2 cells; MIA PaCa-2 cells, 72 h): 100 nM
2xLS (MIA PaCa-2 cells; MIA PaCa-2 cells, 72 h): 3 nM

COc1cc(C2CCN(C(C)C)CC2)ccc1-c1cc(Nc2cnc(C#N)cn2)n[nH]1 [Example 61, 5-[[5-[4-(1-isopropyl-4-piperidyl)-2-methoxy-phenyl]-1H-pyrazol-3-yl]amino]pyrazine-2-carbonitrile]
IC50 (Chk-1 kinase): 0.1 nM
IC50 (MIA PaCa-2 cells; [1]): 251 nM
10xLS (MIA PaCa-2 cells; MIA PaCa-2 cells, 72 h): 100 nM
2xLS (MIA PaCa-2 cells; MIA PaCa-2 cells, 72 h): 2 nM

COc1cc(C2CCN(CC(N)=O)CC2)ccc1-c1cc(Nc2cnc(C#N)cn2)n[nH]1 [Example 62, 2-[4-[4-[3-[(5-cyanopyrazin-2-yl)amino]-1H-pyrazol-5-yl]-3-methoxy-phenyl]-1-piperidyl]acetamide]
IC50 (Chk-1 kinase): 0.084 nM
IC50 (MIA PaCa-2 cells; [1]): 875 nM
10xLS (MIA PaCa-2 cells; MIA PaCa-2 cells, 72 h): 300 nM
2xLS (MIA PaCa-2 cells; MIA PaCa-2 cells, 72 h): 10 nM

COc1cc(CN(C)C2CCOCC2)ccc1-c1cc(Nc2cnc(C#N)cn2)n[nH]1 [Example 63, 5-[[5-[2-methoxy-4-[[methyl(tetra hydropyran-4-yl)amino]methyl]phenyl]-1H-pyrazol-3-yl]amino]pyrazine-2-carbonitrile]
IC50 (Chk-1 kinase): 0.052 nM
IC50 (MIA PaCa-2 cells; [1]): 600 nM
10xLS (MIA PaCa-2 cells; MIA PaCa-2 cells, 72 h): 100 nM
2xLS (MIA PaCa-2 cells; MIA PaCa-2 cells, 72 h): <3 nM

COc1cc(C2(F)CCN(C)CC2)ccc1-c1cc(Nc2cnc(C#N)cn2)n[nH]1 [Example 64, 5-[[5-[4-(4-Fluoro-1-methyl-4-piperidyl)-2-methoxy-phenyl]-1H-pyrazol-3-yl]amino]pyrazine-2-carbonitrile hydrochloride]
IC50 (Chk-1 kinase): 0.15 nM
IC50 (MIA PaCa-2 cells; [2]): 144 nM
10xLS (MIA PaCa-2 cells; MIA PaCa-2 cells, 72 h): 100 nM
2xLS (MIA PaCa-2 cells; MIA PaCa-2 cells, 72 h): 3 nM
